Legend:
[1] = system: Eschericia coli (E. coli) strain ATCC25922; experiment: Standard microdilution assay, MIC against E. coli ATCC25922; format: cell-based; conditions: Escherichia coli; E. coli strain ATCC25922, standard microdilution assay; cutoff 16 micrograms/mL; read-out: MIC E. Coli
In short: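 Scoring as + or − used a 16 micrograms/mL cutoff on minimum inhibitory concentrations. These came from CLSI-standard microdilution, quality-controlled with reference strains tested in the same run.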

[2] = system: Staphylococcus aureus (S. aureus) 11540 strain; experiment: Standard microdilution assay, MIC against S. aureus 11540; format: cell-based; conditions: S. aureus 11540 strain, standard microdilution assay, cutoff 16 micrograms/mL, read-out: MIC S. aureus
Protocol: The in vitro activity of the compounds of the present invention can be determined. Antimicrobial testing is typically performed to determine the minimum inhibitory concentration (MIC). Minimum inhibitory concentrations (MICs) are determined by the microdilution method in a final volume of 100 μl according to protocols outlined by The Clinical and Laboratory Standards Institute (CLSI). Performance standards for reference strains are assessed within the same experimental design to maintain quality control. See, for example, Clinical Laboratory Standards Institute: Methods for dilution antimicrobial susceptibility tests for bacteria that grow aerobically M7-A8. Approved Standard-Eighth Edition. Wayne, Pa.: CLSI; December 2008; and Clinical Laboratory Standards Institute: Performance Standards for Antimicrobial Susceptibility Testing M100-S20; Approved Standard-Twentieth Edition. Wayne, Pa.: CLSI; June 2010.
The compounds of the present invention were tested for antimicrobial activity. The Compounds 1-582 were run against Eschericia coli (E. coli) strain ATCC25922 and Compounds 320-582 were run against Staphylococcus aureus (S. aureus) 11540 strain using a standard microdilution assay to determine minimum inhibitory concentrations (MICs). […] It will be recognized by one skilled in the art that the compounds can be assessed against other bacterial organisms and that the presentation of data for activity against Eschericia coli and Staphylococcus aureus are illustrative and in no way is intended to limit the scope of the present invention. The compounds of the present invention can be assayed against a range of other microorganisms depending upon the performance activity desired to be gathered. Furthermore, the “+” and “−” representation and the selection of a cutoff value of 16 micrograms/mL is also illustrative and in no way is intended to limit the scope of the present invention.

MIC [1] [µg/mL]	MIC [2] [µg/mL]	Compound
< 16	< 16	C[C@H](N)CCCc1cc(OC(F)(F)F)c(F)c(-c2cc3cn(-c4ccc([C@@H](N)CCNC(=N)N)cc4)c(=O)nc3[nH]2)c1 [Compound 428]
< 16	< 16	C[C@H](N)CCCc1cc(OC(F)(F)F)c(F)c(-c2cc3cn(-c4ccc([C@@H]5CCC[C@@H](CCN)N5)cc4)c(=O)nc3[nH]2)c1 [Compound 429]
< 16	< 16	C[C@H](N)CCCc1cc(OC(F)(F)F)c(F)c(-c2cc3cn(-c4ccc([C@@H]5CCC[C@@H](CCNC(=N)N)N5)cc4)c(=O)nc3[nH]2)c1 [Compound 430]
< 16	< 16	C[C@H](N)CCCc1cc(Cl)c(F)c(-c2cc3cn(-c4ccc([C@H](C)N5CC[C@@H](NC(=N)N)C5)cc4)c(=O)nc3[nH]2)c1 [Compound 431]
< 16	< 16	CC[C@H](NCCCNC(=N)N)c1ccc(-n2cc3cc(-c4cc(CCC[C@@H](N)CO)cc(Cl)c4F)[nH]c3nc2=O)cc1 [Compound 432]
< 16	< 16	C[C@H](N)CCCc1cc(Cl)c(F)c(-c2cc3cn(-c4ccc([C@H]5CCC[C@H](CCNC(=N)N)N5)cc4)c(=O)nc3[nH]2)c1 [Compound 433]
< 16	< 16	C[C@H](N)CCCc1cc(Cl)c(F)c(-c2cc3cn(-c4ccc(C5(CCNC(=N)N)CNC5)cc4)c(=O)nc3[nH]2)c1 [Compound 434]
< 16	< 16	C[C@H](N)CCCc1cc(OC(F)(F)F)c(F)c(-c2cc3cn(-c4ccc(C5(CCNC(=N)N)CNC5)cc4)c(=O)nc3[nH]2)c1 [Compound 435]
< 16	< 16	C[C@H](N)CCCc1cc(Cl)c(F)c(-c2cc3cn(-c4ccc(CN[C@@H](C)C[C@@H](CO)NC(=N)N)cc4)c(=O)nc3[nH]2)c1 [Compound 436]
< 16	< 16	C[C@H](N)CCCc1cc(Cl)c(F)c(-c2cc3cn(-c4ccc(CN[C@@H](C)C[C@H](CO)NC(=N)N)cc4)c(=O)nc3[nH]2)c1 [Compound 437]
< 16	< 16	C[C@H](N)CCCc1cc(Cl)c(F)c(-c2cc3cn(-c4ccc([C@@H]5CCC[C@H](CCNC(=N)N)N5)cc4)c(=O)nc3[nH]2)c1 [Compound 438]
< 16	< 16	C[C@H](N)CCCc1cc(OC(F)(F)F)c(F)c(-c2cc3cn(-c4ccc([C@@H]5CCC[C@H](CCNC(=N)N)N5)cc4)c(=O)nc3[nH]2)c1 [Compound 439]
< 16	< 16	C[C@H](N)CCCc1cc(Cl)c(F)c(-c2cc3cn(-c4ccc([C@H](N)CCN)cc4)c(=O)nc3[nH]2)c1 [Compound 440]
< 16	< 16	C[C@H](N)CCCc1cc(OC(F)(F)F)c(F)c(-c2cc3cn(-c4ccc([C@H](N)CCN)cc4)c(=O)nc3[nH]2)c1 [Compound 441]

Continued, compound first:

Compound	MIC [1] [µg/mL]	MIC [2] [µg/mL]
N=C(N)N[C@@H](CN)CCNCc1ccc(-n2cc3cc(-c4cc(CCC[C@@H](N)CO)cc(Cl)c4F)[nH]c3nc2=O)cc1 [Compound 399]	< 16	< 16
C[C@H](N)CCCc1cc(Cl)c(F)c(-c2cc3cn(-c4ccc([C@H](C)N(C=O)CCCNC(=N)N)cc4)c(=O)nc3[nH]2)c1 [Compound 400]	< 16	< 16
C[C@H](N)CCCc1cc(Cl)c(F)c(-c2cc3cn(-c4ccc(CN[C@H](C)C[C@@H](CN)NC(=N)N)cc4)c(=O)nc3[nH]2)c1 [Compound 401]	< 16	< 16
C[C@H](N)CCCc1cc(OC(F)(F)F)c(F)c(-c2cc3cn(-c4ccc(CN[C@H](C)C[C@@H](CN)NC(=N)N)cc4)c(=O)nc3[nH]2)c1 [Compound 402]	< 16	< 16
C[C@H](N)CCCc1cc(Cl)c(F)c(-c2cc3cn(-c4ccc(C5(CCN)CN(C(=N)N)C5)cc4)c(=O)nc3[nH]2)c1 [Compound 403]	< 16	< 16
C[C@H](N)CCCc1cc(Cl)c(F)c(-c2cc3cn(-c4ccc(C5(CCNC(=N)N)CN(C(=N)N)C5)cc4)c(=O)nc3[nH]2)c1 [Compound 404]	< 16	< 16
C[C@H](N)CCCc1cc(Cl)c(F)c(-c2cc3cn(-c4ccc([C@@H]5CC(CCNC(=N)N)CN5)cc4)c(=O)nc3[nH]2)c1 (some centres unmarked) [Compound 405]	< 16	< 16
C[C@H](N)CCCc1cc(Cl)c(F)c(-c2cc3cn(-c4ccc([C@@H]5CC(CCN)CN5)cc4)c(=O)nc3[nH]2)c1 (some centres unmarked) [Compound 406]	< 16	< 16
C[C@H](N)CCCc1cc(Cl)c(F)c(-c2cc3cn(-c4ccc([C@@H]5CC(CCNC(=N)N)CN5C(=N)N)cc4)c(=O)nc3[nH]2)c1 (some centres unmarked) [Compound 407]	< 16	< 16
C[C@H](N)CCCc1cc(OC(F)(F)F)c(F)c(-c2cc3cn(-c4ccc([C@@H]5CC(CCNC(=N)N)CN5)cc4)c(=O)nc3[nH]2)c1 (some centres unmarked) [Compound 408]	< 16	< 16
C[C@H](N)CCCc1cc(OC(F)(F)F)c(F)c(-c2cc3cn(-c4ccc([C@@H]5CC(CCN)CN5)cc4)c(=O)nc3[nH]2)c1 (some centres unmarked) [Compound 409]	< 16	< 16
C[C@H](N)CCCc1cc(Cl)c(F)c(-c2cc3cn(-c4ccc([C@@H](N)CCCN)cc4)c(=O)nc3[nH]2)c1 [Compound 410]	< 16	< 16
C[C@H](N)CCCc1cc(OC(F)(F)F)c(F)c(-c2cc3cn(-c4ccc([C@@H](N)CCCN)cc4)c(=O)nc3[nH]2)c1 [Compound 411]	< 16	< 16
C[C@H](N)CCCc1cc(Cl)c(F)c(-c2cc3cn(-c4ccc([C@@H](N)CCCNC(=N)N)cc4)c(=O)nc3[nH]2)c1 [Compound 412]	< 16	< 16
C[C@H](N)CCCc1cc(OC(F)(F)F)c(F)c(-c2cc3cn(-c4ccc([C@@H](N)CCCNC(=N)N)cc4)c(=O)nc3[nH]2)c1 [Compound 413]	< 16	< 16
CC[C@H](N)CCCc1cc(Cl)c(F)c(-c2cc3cn(-c4ccc([C@H](C)NCC[C@H](CN)NC(=N)N)cc4)c(=O)nc3[nH]2)c1 [Compound 414]	< 16	< 16
CC[C@H](N)CCCc1cc(Cl)c(F)c(-c2cc3cn(-c4ccc(CNCC[C@H](CN)NC(=N)N)cc4)c(=O)nc3[nH]2)c1 [Compound 415]	< 16	< 16
CC[C@H](N)CCCc1cc(Cl)c(F)c(-c2cc3cn(-c4ccc(CN5CC[C@H](CN)NC5=N)cc4)c(=O)nc3[nH]2)c1 [Compound 416]	< 16	< 16
C[C@H](N)CCCc1cc(Cl)c(F)c(-c2cc3cn(-c4ccc(CN5CC[C@H](CN)NC5=N)cc4)c(=O)nc3[nH]2)c1 [Compound 417]	< 16	< 16
C[C@H](N)CCCc1cc(Cl)c(F)c(-c2cc3cn(-c4ccc(CN5CC[C@H](CN6CCOCC6)NC5=N)cc4)c(=O)nc3[nH]2)c1 [Compound 418]	< 16	< 16
C[C@H](N)CCCc1cc(OC(F)(F)F)c(F)c(-c2cc3cn(-c4ccc(CN5CC[C@H](CN6CCOCC6)NC5=N)cc4)c(=O)nc3[nH]2)c1 [Compound 419]	< 16	< 16
C[C@H](N)CCCc1cc(Cl)c(F)c(-c2cc3cn(-c4ccc([C@@H]5CCC[C@@H](CCNC(=N)N)N5)cc4)c(=O)nc3[nH]2)c1 [Compound 420]	< 16	< 16
C[C@H](N)CCCc1cc(Cl)c(F)c(-c2cc3cn(-c4ccc([C@@H]5CCC[C@@H](CCN)N5)cc4)c(=O)nc3[nH]2)c1 [Compound 421]	< 16	< 16
C[C@H](N)CCCc1cc(Cl)c(F)c(-c2cc3cn(-c4ccc([C@H](C)NCC[C@@H](CNC(=O)CN)NC(=N)N)cc4)c(=O)nc3[nH]2)c1 [Compound 422]	< 16	< 16
C[C@H](N)CCCc1cc(OC(F)(F)F)c(F)c(-c2cc3cn(-c4ccc([C@H](C)NCC[C@@H](CNC(=O)CN)NC(=N)N)cc4)c(=O)nc3[nH]2)c1 [Compound 423]	< 16	< 16
C[C@H](N)CCCc1cc(Cl)c(F)c(-c2cc3cn(-c4ccc([C@H](C)NCC[C@H](N)CNC(=O)CN)cc4)c(=O)nc3[nH]2)c1 [Compound 424]	< 16	< 16
C[C@H](N)CCCc1cc(Cl)c(F)c(-c2cc3cn(-c4ccc([C@@H](N)CCN)cc4)c(=O)nc3[nH]2)c1 [Compound 425]	< 16	< 16
C[C@H](N)CCCc1cc(OC(F)(F)F)c(F)c(-c2cc3cn(-c4ccc([C@@H](N)CCN)cc4)c(=O)nc3[nH]2)c1 [Compound 426]	< 16	< 16
C[C@H](N)CCCc1cc(Cl)c(F)c(-c2cc3cn(-c4ccc([C@@H](N)CCNC(=N)N)cc4)c(=O)nc3[nH]2)c1 [Compound 427]	< 16	< 16
